The values below come from patent publication US20100137313A1 (ASTRAZENECA AB, priority 2008, published 2010).

Sequence of S. pneumoniae Topoisomerase IV ATPase (ParE) (Q59961 whole entry): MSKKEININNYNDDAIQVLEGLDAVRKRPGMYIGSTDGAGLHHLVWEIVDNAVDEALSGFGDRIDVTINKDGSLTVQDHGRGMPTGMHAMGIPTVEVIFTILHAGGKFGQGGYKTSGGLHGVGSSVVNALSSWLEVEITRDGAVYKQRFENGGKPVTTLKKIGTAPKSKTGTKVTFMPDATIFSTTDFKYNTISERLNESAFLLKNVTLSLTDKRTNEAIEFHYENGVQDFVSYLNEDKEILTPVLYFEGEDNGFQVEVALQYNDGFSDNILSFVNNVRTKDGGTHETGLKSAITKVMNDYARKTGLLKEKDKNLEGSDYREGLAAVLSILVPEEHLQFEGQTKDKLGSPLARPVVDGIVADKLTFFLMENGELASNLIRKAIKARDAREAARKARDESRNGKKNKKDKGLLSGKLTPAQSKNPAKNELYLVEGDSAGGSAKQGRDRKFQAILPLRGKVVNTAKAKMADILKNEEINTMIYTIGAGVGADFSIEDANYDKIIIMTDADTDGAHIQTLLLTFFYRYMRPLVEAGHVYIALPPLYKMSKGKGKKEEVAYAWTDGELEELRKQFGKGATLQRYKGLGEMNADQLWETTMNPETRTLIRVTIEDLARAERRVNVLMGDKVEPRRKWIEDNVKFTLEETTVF

The target in the assay is S. pneumoniae Topoisomerase IV ATPase (ParE) (Streptococcus pneumoniae serotype 4, UniProt Q59961). The assay is described as follows: S. pneumoniae Topoisomerase IV ATPase inhibition. The following applies: values marked * are an average of two or more data points, read-out: % Inh (13 μM) of S. pneumoniae Topoisomerase IV ATPase. It counts as biochemical. In outline:
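S. pneumoniae ParE (1.25 nM) ATPase with 160 μM ATP and 5 μg/ml sheared DNA in pH 8.0 Tris, Mg2+, DTT, Brij-35; phosphate detected by malachite green/molybdate at 650 nm. Normalised to 2% DMSO (0%) and 20 μM EDTA (100%); IC50 from 10 concentrations.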
On to `COCCCNc1nc(Nc2ccc(F)c(Cl)c2)ncc1-c1ccc(C(C)=O)s1` [Example 179, 1-(5-(2-(3-chloro-4-fluorophenylamino)-4-(3-methoxypropylamino)-pyrimidin-5-yl)thiophen-2-yl)ethanone], for which the inhibition at 13 µM amounted to 93.9%. Consider `Cc1cc(C(F)(F)F)nn1-c1nc(Nc2ccc3c(c2)CCC3)ncc1-c1cncc(C(=O)O)c1` [Example 669, 5-{2-(2,3-dihydro-1H-inden-5-ylamino)-4-[5-methyl-3-(trifluoromethyl)-1H-pyrazol-1-yl]pyrimidin-5-yl}pyridine-3-carboxylic acid], for which the inhibition at 13 µM is 68%. For `COc1ncc(-c2cnc(Nc3cc(C)cc(C)c3)nc2-n2ccc(C(F)(F)F)n2)cc1C(=O)NS(=O)(=O)CCCN1CCOCC1` [Example 828, 5-{2-[(3,5-dimethylphenyl)amino]-4-[3-(trifluoromethyl)-1H-pyrazol-1-yl]pyrimidin-5-yl}-2-methoxy-N-{[3-(morpholin-4-yl)propyl]sulfonyl}pyridine-3-carboxamide], the inhibition at 13 µM came out at 100%. Consider `CCN1CC(CNc2nc(Nc3ccc(F)c(Cl)c3)ncc2-c2cnc(OC)nc2)CC1=O` (stereo not drawn) [Example 467, 4-((2-(3-chloro-4-fluorophenylamino)-2′-methoxy-5,5′-bipyrimidin-4-ylamino)methyl)-1-ethylpyrrolidin-2-one], for which the inhibition at 13 µM is 76%. For the compound `Cc1cc(C)cc(Nc2ncc(-c3cccc(/C=C/C(=O)O)c3)c(N3CCOCC3)n2)c1` [Example 405, (E)-3-{3-[2-(3,5-Dimethyl-phenylamino)-4-morpholin-4-yl-pyrimidin-5-yl]-phenyl}-acrylic acid], the inhibition at 13 µM was determined as 85%. Under `CNC(=O)C1CCN(c2nc(Nc3ccc(F)c(Cl)c3)ncc2-c2cncc(C(=O)O)c2)CC1` [Example 247, 5-[2-[(3-chloro-4-fluoprophenyl)amino]-4-[4-(methylcarbamoyl)-piperidin-1-yl]pyrimidin-5-yl]pyridine-3-carboxylic acid] stands 42.2%; under `Cc1cc(C(F)(F)F)nn1-c1nc(Nc2ccc3c(c2)CCC3)ncc1-c1cccc(/C=C/C(=O)O)c1` [Example 656, (2E)-3-(3-{2-(2,3-dihydro-1H-inden-5-ylamino)-4-[5-methyl-3-(trifluoromethyl)-1H-pyrazol-1-yl]pyrimidin-5-yl}phenyl)prop-2-enoic acid], 78%; under `COc1cc(Nc2ncc(-c3cncc(C(=O)CS(C)(=O)=O)c3)c(-n3nc(C(F)(F)F)cc3C)n2)cc(C(F)(F)F)c1` [Example 881, 1-(5-(2-(3-methoxy-5-(trifluoromethyl)phenylamino)-4-(5-methyl-3-(trifluoromethyl)-1H-pyrazol-1-yl)pyrimidin-5-yl)pyridin-3-yl)-2-(methylsulfonyl)ethanone], 97%.

Take `CCOC(=O)c1cncc(-c2cnc(Nc3ccc(F)c(Cl)c3)nc2N2CCCCCC2)c1` [Example 127, ethyl 5-[4-(azepan-1-yl)-2-[(3-chloro-4-fluorophenyl)amino]pyrimidin-5-yl]pyridine-3-carboxylate]: the inhibition at 13 µM is 26.5%. Under `O=C(O)c1cncc(-c2cnc(Nc3cccc(Cl)c3)nc2-n2ccc(C(F)(F)F)n2)c1` [Ex 745, 5-{2-[(3-chlorophenyl)amino]-4-[3-(trifluoromethyl)-1H-pyrazol-1-yl]pyrimidin-5-yl}pyridine-3-carboxylic acid] stands 100%; under `CCOC(=O)/C=C/c1cccc(-c2cnc(Nc3ccc(F)c(Cl)c3)nc2N2CC(C)OC(C)C2)c1` (stereo not drawn) [Example 163, (E)-ethyl 3-(3-(2-(3-chloro-4-fluorophenylamino)-4-(2,6-dimethylmorpholino)pyrimidin-5-yl)phenyl)acrylate], 55%; under `O=C(O)c1cccc(-c2cnc(Nc3ccc(F)c(Cl)c3)nc2N2CCOCC2)c1` [Example 487, 3-{2-[(3-chloro-4-fluorophenyl)amino]-4-(morpholin-4-yl)pyrimidin-5-yl}benzoic acid], 84%.
